Patent US10717742B2, “Spiro[3H-indole-3,2′-pyrrolidin]-2(1H)-one compounds and derivatives as MDM2-P53 inhibitors” (Boehringer Ingelheim International GmbH, priority 2015, dated 2020)

Biological target: p53-MDM2 interaction (GST-MDM2 protein aa 23-117 / biotinylated p53 wt peptide) (Homo sapiens (Human), UniProt Q00987)
Test: Mdm2-p53 Inhibition AlphaScreen
Assay type: binding
Conditions: GST-MDM2 (aa 23-117) / biotinylated p53 wt peptide
Protocol: Mdm2-p53 Inhibition AlphaScreen
15 μL of compound in 20% DMSO (serial pre-dilutions of compound are done in 100% DMSO) is pipetted to the wells of a white OptiPlate-96 (Perkin Elmer). A mix consisting of 20 nM GST-MDM2 protein (aa 23-117) and 20 nM biotinylated p53 wt peptide (encompassing aa 16-27 of wt human p53, amino acid sequence […]-Ttds-Lys-Biotin, molecular weight 2132.56 g/mol) is prepared in assay buffer (50 mM Tris/HCl pH 7.2; 120 mM NaCl; 0.1% bovine serum albumin (BSA); 5 mM dithiothreitol (DTT); 1 mM ethylenediaminetetraacetic acid (EDTA); 0.01% Tween 20). 30 μL of the mix is added to the compound dilutions and incubated for 15 min at rt while gently shaking the plate at 300 rounds per minute (rpm). Subsequently, 15 μL of premixed AlphaLISA Glutathione Acceptor Beads and AlphaScreen Streptavidin Donor Beads from PerkinElmer (in assay buffer at a concentration of 10 μg/mL each) are added and the samples are incubated for 30 min at rt in the dark (shaking 300 rpm). Afterwards, the signal is measured in a PerkinElmer Envision HIS Multilabel Reader using the AlphaScreen protocol from Perkin Elmer.
Each plate contains negative controls where biotinylated p53-peptide and GST-MDM2 are left out and replaced by assay buffer. Negative control values are entered as low basis value when using the software GraphPad Prism for calculations. Furthermore, a positive control (5% DMSO instead of test compound; with protein/peptide mix) is pipetted. Determination of IC50 values are carried out using GraphPad Prism 3.03 software (or updates thereof).

p53-MDM2 interaction (GST-MDM2 protein aa 23-117 / biotinylated p53 wt peptide), sequence (Q00987 23-117): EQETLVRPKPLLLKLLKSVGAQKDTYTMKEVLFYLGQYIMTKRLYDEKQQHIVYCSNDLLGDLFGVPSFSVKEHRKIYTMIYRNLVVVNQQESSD

SMILES	IC50
O=C(O)c1ccc2c(c1)nc1n2CC[C@H]2[C@@H]1[C@H](c1cccc(Cl)c1F)[C@]1(C(=O)Nc3cc(Cl)ccc31)N2CC1CCCCC1 [Ib-137]	34 nM
O=C(NC1COCC1O)c1ccc2c(c1)nc1n2CC[C@H]2[C@@H]1[C@H](c1cccc(Cl)c1F)[C@]1(C(=O)Nc3cc(Cl)ccc31)N2CC1CC1 (stereo partly shown) [Ib-229]	4 nM
CCOc1cccc(CN2[C@H]3CCn4c(nc5cc(C(=O)O)ccc54)[C@H]3[C@H](c3cccc(Cl)c3F)[C@]23C(=O)Nc2cc(Cl)ccc23)c1 [Ib-140]	2 nM
NC(=O)c1ccc2c(c1)nc1n2CC[C@H]2[C@@H]1[C@H](c1cccc(Cl)c1F)[C@]1(C(=O)Nc3cc(Cl)ccc31)N2CC1CC1 [Ib-210]	4 nM
CC(C)(C(=O)O)c1ccc2c(c1)nc1n2CC[C@H]2[C@@H]1[C@H](c1cccc(Cl)c1F)[C@]1(C(=O)Nc3cc(Cl)ccc31)N2CC1CC1 [Ib-167]	22 nM
Cc1c(C(=O)O)ccc2c3n(nc12)[C@@H]1[C@H](C3)N(CC2CC2)[C@@]2(C(=O)Nc3cc(Cl)ccc32)[C@H]1c1cccc(Cl)c1F [Ia-34]	2 nM
O=C(O)c1ccc2c(nc3n2C[C@H]2[C@@H]3[C@H](c3cccc(Cl)c3F)[C@]3(C(=O)Nc4cc(Cl)ccc43)N2CC2CC2)c1C(F)(F)F [Ib-193]	3 nM
COCC(COC)NC(=O)c1ccc2c(c1)nc1n2CC[C@H]2[C@@H]1[C@H](c1cccc(Cl)c1F)[C@]1(C(=O)Nc3cc(Cl)ccc31)N2CC1CC1 [Ib-217]	4 nM
CCOc1cccc(CN2[C@H]3Cc4c5cc(C)c(C(=O)NC)cc5nn4[C@H]3[C@H](c3cccc(Cl)c3F)[C@]23C(=O)Nc2cc(Cl)ccc23)c1 [Ia-56]	5 nM
CC1(NC(=O)c2ccc3c(c2)nc2n3CC[C@H]3[C@@H]2[C@H](c2cccc(Cl)c2F)[C@]2(C(=O)Nc4cc(Cl)ccc42)N3CC2CC2)COC1 [Ib-225]	5 nM
O=C(NC1CC1)c1ccc2c(c1)nc1n2CC[C@H]2[C@@H]1[C@H](c1cccc(Cl)c1F)[C@]1(C(=O)Nc3cc(Cl)ccc31)N2CC1CC1 [Ib-212]	5 nM
CCOc1cccc(CN2[C@H]3Cc4c5cc(C)c(C(=O)NCCOC)cc5nn4[C@H]3[C@H](c3cccc(Cl)c3F)[C@]23C(=O)Nc2cc(Cl)ccc23)c1 [Ia-55]	6 nM
CCOc1cccc(CN2[C@H]3Cn4c(nc5cc(C(=O)NO)ccc54)[C@H]3[C@H](c3cccc(Cl)c3F)[C@]23C(=O)Nc2cc(Cl)ccc23)c1 [Ib-244]	3 nM
CC(C)CN1[C@H]2CCn3c(nc4cc(C(=O)O)ccc43)[C@H]2[C@H](c2cccc(Cl)c2F)[C@]12C(=O)Nc1cc(Cl)ccc12 [Ib-110]	3 nM
COCc1cccc(CN2[C@H]3CCn4c(nc5cc(C(=O)O)ccc54)[C@H]3[C@H](c3cccc(Cl)c3F)[C@]23C(=O)Nc2cc(Cl)ccc23)c1 [Ib-142]	3 nM
Cc1c(C(=O)N2CCOCC2)ccn2c3c(nc12)[C@@H]1[C@H](C3)N(CC2CC2)[C@@]2(C(=O)Nc3cc(Cl)ccc32)[C@H]1c1ccnc(Cl)c1F [Ic-37]	10 nM
O=C(O)c1ccc2c(c1)nc1n2CC[C@@H]2[C@H]1[C@@H](c1cccc(Cl)c1F)[C@@]1(C(=O)Nc3cc(Cl)ccc31)N2CC1CC1 [Ib-108]	79 nM
CC(=O)Nc1ccc2c(c1)nc1n2CC[C@H]2[C@@H]1[C@H](c1cccc(Cl)c1F)[C@]1(C(=O)Nc3cc(Cl)ccc31)N2CC1CC1 [Ib-59]	15 nM
COc1cccc(CCN2[C@H]3Cn4c(nc5cc(C(=O)O)ccc54)[C@H]3[C@H](c3cccc(Cl)c3F)[C@]23C(=O)Nc2cc(Cl)ccc23)c1 [Ib-186]	4 nM
O=C(O)c1ccc2nc3n(c2c1)C[C@@H]1[C@H]3[C@@H](c2cccc(Cl)c2F)[C@@]2(C(=O)Nc3cc(Cl)ccc32)N1CC1CC1 [Ib-180]	83 nM

SMILES	IC50
CN1CCN(C(=O)c2ccc3c(c2)nc2n3CC[C@H]3[C@@H]2[C@H](c2cccc(Cl)c2F)[C@]2(C(=O)Nc4cc(Cl)ccc42)N3CC2CC2)CC1 [Ib-221]	10 nM
CCN1[C@H]2Cc3c4ccc(C(=O)NCCN(C)C)cc4nn3[C@H]2[C@H](c2cccc(Cl)c2F)[C@]12C(=O)Nc1cc(Cl)ccc12 [Ia-51]	7 nM
O=C(O)c1cc2nc3n(c2cc1C(F)(F)F)C[C@H]1[C@@H]3[C@H](c2cccc(Cl)c2F)[C@]2(C(=O)Nc3cc(Cl)ccc32)N1CC1CC1 [Ib-195]	6 nM
CCN1[C@H]2CCn3c(nc4cc(C(=O)O)ccc43)[C@H]2[C@H](c2cccc(Cl)c2F)[C@]12C(=O)Nc1cc(Cl)ccc12 [Ib-111]	7 nM
O=C(O)c1ccc2nn3c(c2c1)C[C@H]1[C@@H]3[C@H](c2cccc(Cl)c2F)[C@]2(C(=O)Nc3cc(Cl)ccc32)N1CC1CC1 [Ia-38]	2 nM
CCOc1cccc(CN2[C@H]3CCn4c(nc5cc(C(=O)O)ccc54)[C@H]3[C@H](c3cccc(Cl)c3F)[C@]23C(=O)Nc2cc(Cl)ccc23)c1 [Ib-139]	4 nM
O=C(NO)c1ccc2c(c1)nc1n2CC[C@H]2[C@@H]1[C@H](c1cccc(Cl)c1F)[C@]1(C(=O)Nc3cc(Cl)ccc31)N2CC1CC1 [Ib-231]	4 nM
NCCNC(=O)c1ccc2c(c1)nc1n2CC[C@H]2[C@@H]1[C@H](c1cccc(Cl)c1F)[C@]1(C(=O)Nc3cc(Cl)ccc31)N2CC1CC1 [Ib-222]	9 nM
CC(C)CN1[C@H]2Cc3c4ccc(C(=O)O)cc4nn3[C@H]2[C@H](c2cccc(Cl)c2F)[C@]12C(=O)Nc1cc(Cl)ccc12 [Ia-27]	2 nM
CCOc1cccc(CN2[C@H]3Cc4c5cc(C)c(C(=O)N6CCOCC6)cc5nn4[C@H]3[C@H](c3cccc(Cl)c3F)[C@]23C(=O)Nc2cc(Cl)ccc23)c1 [Ia-54]	13 nM
O=C(c1ccc2c(c1)nc1n2CC[C@H]2[C@@H]1[C@H](c1cccc(Cl)c1F)[C@]1(C(=O)Nc3cc(Cl)ccc31)N2CC1CC1)N1CCOCC1 [Ib-220]	10 nM
COc1cc2c(cc1C(=O)N(C)C)nc1n2CC[C@H]2[C@@H]1[C@H](c1cccc(Cl)c1F)[C@]1(C(=O)Nc3cc(Cl)ccc31)N2CC1CC1 [Ib-236]	5 nM
CC(C)(C)OCCN1[C@H]2CCn3c(nc4cc(C(=O)O)ccc43)[C@H]2[C@H](c2cccc(Cl)c2F)[C@]12C(=O)Nc1cc(Cl)ccc12 [Ib-131]	22 nM
COC(=O)c1ccc2c3n(nc2c1C)[C@@H]1[C@H](C3)N(CC2CC2)[C@@]2(C(=O)Nc3cc(Cl)ccc32)[C@H]1c1cccc(Cl)c1F [Ia-20]	23 nM
Cc1c(C(=O)O)ccc2c1nc1n2CC[C@H]2[C@@H]1[C@H](c1cccc(Cl)c1F)[C@]1(C(=O)Nc3cc(Cl)ccc31)N2CC1CC1 [Ib-160]	4 nM
COCC(COC)NC(=O)c1ccc2c3n(nc2c1)[C@@H]1[C@H](C3)N(CC2CCC2)[C@@]2(C(=O)Nc3cc(Cl)ccc32)[C@H]1c1cccc(Cl)c1F [Ia-48]	10 nM
CC1(CNC(=O)c2ccc3c(c2)nc2n3CC[C@H]3[C@@H]2[C@H](c2cccc(Cl)c2F)[C@]2(C(=O)Nc4cc(Cl)ccc42)N3CC2CC2)COC1 [Ib-226]	5 nM
O=C(O)c1ccc2c3n(nc2c1)[C@@H]1[C@H](C3)N(CC2CC2)[C@@]2(C(=O)Nc3nc(Cl)ccc32)[C@H]1c1cccc(Cl)c1F [Ia-43]	2 nM
Cc1cc2c(cc1C(=O)O)nc1n2C[C@H]2[C@@H]1[C@H](c1cccc(Cl)c1F)[C@]1(C(=O)Nc3cc(Cl)ccc31)N2CC1CC1 [Ib-188]	3 nM
O=C(O)c1ccc2c(c1)nc1n2C[C@H]2[C@@H]1[C@H](c1cc(Cl)cs1)[C@]1(C(=O)Nc3cc(Cl)ccc31)N2CC1CC1 [Ib-200]	3 nM
